Experiments:
glutamate receptor = test: whole-cell patch-clamp recording of sEPSCs; format: cell-based, human; settings: holding potential −70 mV; CNQX 10 μM applied with D-APV 50
Description: Whole-cell patch-clamp recordings were made from human PSC-derived cortical glutamatergic and GABAergic neurons. The bath solution consisted of 135 mM NaCl, 3 mM KCl, 2 mM CaCl2, 1 mM MgCl2, 10 mM HEPES, 11 mM glucose, 10 mM sucrose, pH 7.4. Recording pipettes were filled with an intracellular solution containing 120 mM potassium D-gluconate, 1 mM ethylene glycol-bis (β-aminoethyl ether) N,N,N′,N′-tetraacetic acid (EGTA), 10 mM 4-(2-hydroxyethyl)piperazine-1-ethanesulfonic acid (HEPES), 4 mM ATP-Mg, 0.3 mM GTP-Na, 10 mM phosphocreatine, 0.1 mM CaCl2, 1 mM MgCl2, pH 7.2, 280-290 mOsm/L. Briefly, the neurons were held at −70 mV to record the Na+/K+ channel activities with voltage-clamp model. […] Spontaneous excitatory postsynaptic currents (sEPSCs) and spontaneous inhibitory currents (sIPSCs) were recorded in gap-free mode at a holding potential of −70 mV and 0 mV, respectively. sEPSCs were blocked by application of the glutamate receptor antagonist 6-Cyano-7-nitroquinoxaline-2,3-dione (CNQX, 10 μM) and D-(−)-2-amino-5-phosphonopentanoic acid (D-APV, 50 sIPSCs were blocked by application of the GABAA receptor antagonist bicuculline (10 An Olympus BX51WI microscope was used to visualize neurons. A MultiClamp 700B amplifier (Axon instruments, Molecular Devices, Sunnyvale, Calif., USA) was used to investigate the voltage clamp and current clamp recordings. […]

[1] = system: hPSC-derived cortical neural progenitor cells (NPCs); test: Live/Dead assay of hPSC-NPCs cultured in fibrin gel; format: cell-based, human
Description: For cell culturing in the fibrin gel, dissociated hPSC-NPCs at a density of 1×10^6 were mixed with fibrinogen at the following concentrations (1, 2.5, 5, 10 and 20 mg/mL) as show in FIG. 5. 0.5 mg/mL aprotinin was added for preventing gel degradation. 1 μL of the fibrinogen-laden cells were dropped on the poly-O coated plates at RT (room temperature). 1 different concentrations of thrombin (0.5, 1, 2.5, 5 and 10 U) solution with 2.5 mM CaCl2 were then added and mixed with the cells-fibrinogen solution. Fresh medium was added after gelation. Cells were encapsulated in the fibrin gel constructs and cultured at 37° C. incubator for characterization. […] The cells, however, tended to aggregate at higher fibrinogen levels. Thus, 2.5 or 5 mg/mL fibrinogen with 0.5 or 1 U thrombin was used for identifying an optimal gelation time.
The cell viability was measured by Live/Dead assay. Briefly, Live/Dead® staining kit (Molecular Probes) was used to assess cell viability. Immediately after harvesting, the cells were incubated in DMEM/F12 containing 1 μM calcein AM and 2 μM ethidium homodimer I for 30 min. […] The number of live (green) and dead (red) cells were counted in each field using Cell Counter in Image-J. The live/dead cell numbers from the five images of one sample were averaged to give each data point and five samples were used to determine the viability.

Molecule | spontaneous excitatory postsynaptic currents (sEPSCs) (glutamate receptor) | also measured
N#Cc1cc2c(cc1[N+](=O)[O-])=NC(=O)C(=O)N=2 [CNQX, 6-Cyano-7-nitroquinoxaline-2,3-dione] | blocked | 
fibrinogen |  | cell viability (percent of live cells to total cells) ([1]; increasing fibrinogen concentrations at fixed low thrombin (0.5 U)): not influenced
thrombin |  | cell viability (percent of live cells to total cells) ([1]; increasing thrombin concentrations at fixed fibrinogen 2.5 mg/ml): decreased with increasing thrombin concentrations
N[C@H](CCCP(=O)(O)O)C(=O)O [D-APV, D-(−)-2-amino-5-phosphonopentanoic acid] | blocked | 
